Laboratory results published in US5324648A, “Substituted isocoumarins as serine protease inhibitors and anti-inflammatory agents” (Georgia Tech Research Corporation, priority 1992, dated 1994).
Like-named read-outs stand apart in the source and are kept apart here.

Assays:
[1] = molecular target: T1, human thrombin (Homo sapiens, UniProt P00734); experiment: Inactivation rate of human thrombin; assay type: biochemical; conditions: Table VIII; pH 7.5, 25° C; [I] 1.2-54 μM; read-out: kobs/[I]
T1 construct: human thrombin
Description: (§1) Inactivation rates of serine proteases by substituted isocoumarins were measured by the incubation method. An aliquot of inhibitor (25 or 50 μl) in Me2 SO was added to a buffered enzyme solution (0.01-2.3 μM) to initiate the inactivation. Aliquots (50 μl) were withdrawn at various intervals and the residual enzymatic activity was measured. Me2 SO concentration in the reaction mixture was 8-12% (v/v). 0.1 Hepes, 0.01M CaCl2, pH 7.5 buffer was utilized for trypsin and coagulation enzymes. 0.1M Hepes, 0.5M NaCl, pH 7.5 was utilized for other serine proteases. The inhibitor concentrations are shown in all the tables. Peptide thioesters or peptide nitroanilides with appropriate sequence were used as substrates for various serine proteases. All peptide thioester hydrolysis rates were measured with assay mixtures containing 4,4'-dithiodipyridine (ε324 =19800M^-1 cm^-1; Grasetti & Murray, Arch. Biochem. Biophys. 119, pp 41-49 (1967)). Peptide 4-nitroanilide nitroanilide hydrolysis was measured at 410 nm (ε410 =8800M^-1 cm^-1; Erlanger et al., Arch. Biochem. Biophys. 95, pp 271-278 (1961)). First order inactivation rate constant (kobs) were obtained from plots of ln (vt /vo) vs time, and the correlation coefficients were greater than 0.98.
(§2) ^a Inhibition rates were measured in 0.1M Hepes, 0.01M CaCl2, pH
(§3) 7.5 buffer, 8% Me2 SO and at 25° C.

[2] = molecular target: T2, bovine thrombin (Bos taurus, UniProt P00735); experiment: Inactivation rate of bovine thrombin; assay type: biochemical; conditions: Table VIII; pH 7.5, 25° C; [I] 1.2-54 μM; read-out: kobs/[I]
T2 construct: bovine thrombin
Description: as §1
(§4) ^a Conditions were as 0.1M Hepes, 0.01M CaCl2, pH 7.5 and 8-12%
(§5) Me2 SO and 25° C. Rate constants were measured by incubation
(§6) method unless otherwise noted. An aliquot of inhibitor was added to an
(§7) enzyme solution and aliquots removed with time and assayed for remaining
(§8) enzymatic activity. Firstorder rate constants, kobs were obtained
(§9) from the plots of ln(vt /vo) versus time.
as §2, §3

[3] = molecular target: T3, human factor Xa (Homo sapiens, UniProt P00742); experiment: Inactivation rate of human factor Xa; assay type: biochemical; conditions: Table VIII; pH 7.5, 25° C; [I] 3.6-44 μM; read-out: kobs/[I]
T3 construct: human factor Xa
Description: as §1, §4, §5, §6, §7, §8, §9, §2, §3

[4] = molecular target: T4, cathepsin G (Homo sapiens, UniProt P08311); experiment: Inactivation of cathepsin G; assay type: biochemical; conditions: Table X; pH 7.5, 25° C; [I] 33-46 μM; read-out: kobs/[I]
T4 construct: from tissue; host or cells: human leukocytes
T4 sequence (P08311 21-255): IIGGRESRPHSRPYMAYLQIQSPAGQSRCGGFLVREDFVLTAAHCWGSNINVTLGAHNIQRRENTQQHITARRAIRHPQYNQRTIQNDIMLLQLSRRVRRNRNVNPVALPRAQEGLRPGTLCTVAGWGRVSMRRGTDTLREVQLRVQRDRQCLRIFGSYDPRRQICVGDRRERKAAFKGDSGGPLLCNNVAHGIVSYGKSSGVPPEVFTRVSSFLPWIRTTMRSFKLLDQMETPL

[5] = molecular target: chymotrypsin (Bos taurus, UniProt P00766); experiment: Inactivation of chymotrypsin; assay type: biochemical, bovine; conditions: Table X, read-out: kobs/[I]
[6] = test system: human lung tryptase; experiment: Inactivation rate of human lung tryptase; assay type: biochemical; conditions: Table IX; for percentage of inhibition: not time dependent, at 0.34-5.0 μM; for kobs/[I]: pH 7.5, 25° C, [I] 0.42-0.47 μM
Description: as §1
^a Inactivation rates were measured at 0.1M Hepes, 0.5M NaCl, pH 7.5
buffer, 8% Me2 SO and 25° C.
as §2
(§10) 7.5 buffer for human plasmin; 25 mM Phosphate, 0.5M NaCl, 1 mM EDTA, pH
(§11) 7.5 buffer for rat skin tryptase and 0.1M Hepes, 0.5M NaCl, pH 7.5 for
(§12) human lung tryptase, human skin tryptase and rt-PA. All enzymes were
(§13) assayed with ZArg-SBzl (0.07 mM) in the presence of 4,4dithiodipyridine
(§14) (0.33 mM). Reaction mixtures contained 8% Me2 SO and assays were […]

[7] = molecular target: T5, rat skin tryptase (Rattus norvegicus, UniProt P27435); experiment: Inactivation rate of rat skin tryptase; assay type: biochemical; conditions: pH 7.5, Table IX; pH 7.5, 25° C; [I] 0.42-0.51 μM; read-out: kobs/[I]
T5 construct: from tissue; host or cells: rat skin
Description: as §1
^b Inactivation rates were measured at 25 mM phosphate, 0.5M NaCl, 1
mM EDTA, pH 7.5 buffer, 9% Me2 SO and 25° C.
as §2, §10, §11, §12, §13, §14

[8] = molecular target: T6, porcine pancreatic elastase (PPE) (Sus scrofa, UniProt P00772); experiment: Inactivation of porcine pancreatic elastase (PPE); assay type: biochemical; conditions: Table X; after 20 min incubation
T6 construct: from tissue; host or cells: porcine pancreas (from the name)

[9] = molecular target: T7, human leukocyte elastase (HLE) (Homo sapiens, UniProt P08246); experiment: Inactivation of human leukocyte elastase (HLE); assay type: biochemical; conditions: Table X; pH 7.5, 25° C; [I] 2.1-42 μM; read-out: kobs/[I]
T7 construct: from tissue; host or cells: human leukocytes (from the name)
T7 sequence (P08246 30-267): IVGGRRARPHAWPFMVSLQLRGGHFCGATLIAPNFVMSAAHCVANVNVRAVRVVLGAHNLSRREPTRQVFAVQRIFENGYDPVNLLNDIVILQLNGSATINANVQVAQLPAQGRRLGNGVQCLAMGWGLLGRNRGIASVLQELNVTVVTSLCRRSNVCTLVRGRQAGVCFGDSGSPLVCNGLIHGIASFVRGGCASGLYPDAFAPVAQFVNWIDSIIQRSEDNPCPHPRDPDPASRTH

[10] = molecular target: recombinant human tissue plasminogen activator (Homo sapiens, UniProt P00750); experiment: Inactivation rate of recombinant human tissue plasminogen activator; assay type: biochemical; conditions: for kinact/KI: pH 7.5, Table IX, pH 7.5, 25° C, [I] 3.5-5.0 μM, read-out: kobs/[I]
Description: as §1
^a Inactivation constants were measured at 0.1M Hepes, 0.5M NaCl (or
as §2, §10, §11, §12, §13, §14

[11] = molecular target: T8, bovine trypsin (Bos taurus, UniProt P00760); experiment: Inactivation rate of bovine trypsin; assay type: biochemical; conditions: Table VIII; pH 7.5, 25° C; [I] 1.1-4.6 μM; read-out: kobs/[I]
T8 sequence (P00760 24-246): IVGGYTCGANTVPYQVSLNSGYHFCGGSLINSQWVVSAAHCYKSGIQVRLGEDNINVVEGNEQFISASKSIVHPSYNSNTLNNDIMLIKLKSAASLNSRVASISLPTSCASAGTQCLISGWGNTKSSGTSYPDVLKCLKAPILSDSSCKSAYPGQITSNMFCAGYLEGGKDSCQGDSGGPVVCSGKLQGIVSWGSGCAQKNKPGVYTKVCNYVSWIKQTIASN
Description: as §1, §4, §5, §6, §7, §8, §9, §2, §3

[12] = Spontaneous hydrolysis in Hepes buffer; assay type: physicochemical; conditions: 0.1 Hepes, 0.5M NaCl, pH 7.5, 9% Me2SO, 25° C
Description: ^a Conditions were 0.1 Hepes, 0.5M NaCl, pH 7.5 and 9% Me2 SO at
25° C. Spontaneous hydrolysis rates were measured
spectrophotometrically by monitoring the decrease in absorbance due to th
isocoumarin ring system (wavelength 335-380 nm) using the firstorder rate

T5 sequence (P27435 29-273): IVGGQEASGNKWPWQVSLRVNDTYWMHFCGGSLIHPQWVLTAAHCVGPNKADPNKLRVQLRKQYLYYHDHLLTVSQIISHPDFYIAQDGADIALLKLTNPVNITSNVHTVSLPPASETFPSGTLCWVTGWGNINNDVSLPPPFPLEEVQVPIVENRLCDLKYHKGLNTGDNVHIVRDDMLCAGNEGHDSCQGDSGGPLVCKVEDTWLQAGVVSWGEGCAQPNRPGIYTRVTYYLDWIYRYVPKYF
Chain of recombinant human tissue plasminogen activator (P00750 36-562): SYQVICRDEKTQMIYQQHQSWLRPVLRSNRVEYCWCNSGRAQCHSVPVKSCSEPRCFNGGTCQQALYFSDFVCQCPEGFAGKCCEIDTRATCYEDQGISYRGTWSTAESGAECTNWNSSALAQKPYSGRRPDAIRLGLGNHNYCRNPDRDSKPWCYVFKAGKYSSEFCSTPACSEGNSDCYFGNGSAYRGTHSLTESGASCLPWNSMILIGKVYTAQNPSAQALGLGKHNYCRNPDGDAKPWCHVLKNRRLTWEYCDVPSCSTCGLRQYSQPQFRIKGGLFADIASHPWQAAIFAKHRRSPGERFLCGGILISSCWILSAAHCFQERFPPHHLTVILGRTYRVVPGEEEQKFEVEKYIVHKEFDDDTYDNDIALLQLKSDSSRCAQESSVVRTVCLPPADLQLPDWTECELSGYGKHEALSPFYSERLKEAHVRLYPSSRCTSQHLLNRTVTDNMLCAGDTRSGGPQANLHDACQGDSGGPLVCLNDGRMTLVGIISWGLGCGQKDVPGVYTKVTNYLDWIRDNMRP
T6 sequence (P00772 27-266): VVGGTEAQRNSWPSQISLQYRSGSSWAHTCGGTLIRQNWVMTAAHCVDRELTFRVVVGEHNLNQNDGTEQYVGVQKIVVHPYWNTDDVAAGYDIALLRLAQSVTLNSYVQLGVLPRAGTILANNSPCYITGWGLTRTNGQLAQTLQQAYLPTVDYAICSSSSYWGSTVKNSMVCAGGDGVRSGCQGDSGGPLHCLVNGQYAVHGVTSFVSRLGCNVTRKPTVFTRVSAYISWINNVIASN
T3 sequence (P00742 235-488 limits assumed): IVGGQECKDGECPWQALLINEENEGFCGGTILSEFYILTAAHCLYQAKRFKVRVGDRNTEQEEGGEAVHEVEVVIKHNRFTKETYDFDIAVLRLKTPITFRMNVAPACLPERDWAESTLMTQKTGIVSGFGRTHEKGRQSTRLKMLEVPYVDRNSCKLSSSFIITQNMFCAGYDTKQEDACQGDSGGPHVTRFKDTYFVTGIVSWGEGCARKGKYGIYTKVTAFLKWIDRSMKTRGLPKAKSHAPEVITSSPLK
T3 sequence (P00742 41-179 partner limits assumed): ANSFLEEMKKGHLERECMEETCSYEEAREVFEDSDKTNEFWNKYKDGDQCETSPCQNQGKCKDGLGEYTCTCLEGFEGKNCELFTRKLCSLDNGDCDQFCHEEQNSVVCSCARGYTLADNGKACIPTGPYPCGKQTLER

| kinact/KI [1] [M⁻¹ s⁻¹] | kinact/KI [2] [M⁻¹ s⁻¹] | kinact/KI [7] [M⁻¹ s⁻¹] | kinact/KI [11] [M⁻¹ s⁻¹] | kinact/KI [10] [M⁻¹ s⁻¹] | Structure (SMILES) | other results |
| --- | --- | --- | --- | --- | --- | --- |
| 5000 | 4100 |  |  |  | CC(C)NC(=O)Nc1ccc2c(Cl)c(OCCSC(=N)N)oc(=O)c2c1 [(CH3)2 CHNHCONH-CiTEtOIC, 7-(isopropylcarbamoylamino)-4-chloro-3-(2-isothiureidoethoxy)isocoumarin] |  |
| 880 | 1070 |  |  |  | C[C@H](N)C(=O)N[C@@H](C)C(=O)Nc1ccc2c(Cl)c(OCCSC(=N)N)oc(=O)c2c1 [Ala--Ala--NH-CiTEtOIC, 7-(L-alanyl-L-alanylamino)-4-chloro-3-(2-isothiureidoethoxy)isocoumarin] | kinact/KI [3]: 1490 M⁻¹ s⁻¹ |
| 970 | 1530 |  |  |  | C[C@H](NC(=O)OC(C)(C)C)C(=O)N[C@@H](C)C(=O)Nc1ccc2c(Cl)c(OCCSC(=N)N)oc(=O)c2c1 [Boc--Ala-- Ala--NH-CiTEtOIC, 7-(N-t-butyloxycarbonyl-L-alanyl-L-alanylamino)-4-chloro-3-(2-isothiureidoethoxy)isocoumarin] |  |
| 1090 | 1040 | 135000 |  |  | CC(C)(C)OC(=O)N[C@H](Cc1ccccc1)C(=O)Nc1ccc2c(Cl)c(OCCSC(=N)N)oc(=O)c2c1 [Boc-D-Phe--NH-CiTEtOIC, 7-(N-t-butyloxycarbonyl-D-phenylalanylamino)-4-chloro-3-(2-isothiureidoethoxy)isocoumarin] | kinact/KI [4]: 35 M⁻¹ s⁻¹; kinact/KI ([5]; pH 7.5, 25° C, [I] 0.9-43 μM): 220 M⁻¹ s⁻¹; percentage of inhibition [6]: 44%; percentage of inhibition [8]: 12%; kinact/KI [9]: 3100 M⁻¹ s⁻¹; percentage of inhibition ([10]; Table IX, not time dependent, at 0.34-5.0 μM): 65% |
| 230 | 190 |  | 105000 |  | CC(C)(C)OC(=O)N[C@H](Cc1ccccc1)C(=O)Nc1ccc2c(Cl)c(OCCCSC(=N)N)oc(=O)c2c1 [Boc-D-Phe--NH-CiTPrOIC, 7-(N-t-butyloxycarbonyl-D-phenylalanylamino)-4-chloro-3-(3-isothiureidopropoxy)isocoumarin] |  |
| 520 | 330 | 150000 |  | 6000 | CC(C)(C)OC(=O)N[C@@H](Cc1ccccc1)C(=O)Nc1ccc2c(Cl)c(OCCCSC(=N)N)oc(=O)c2c1 [Boc-L-Phe--NH-CiTPrOIC, 7-(N-t-butyloxycarbonyl-L-phenylalanylamino)-4-chloro-3-(3-isothiureidopropoxy)isocoumarin] | kobs/[I] [6]: 170,000 M^-1 s^-1 |
| 310 | 420 | 99000 | 107000 | 7000 | CC(=O)Nc1ccc2c(Cl)c(OCCCSC(=N)N)oc(=O)c2c1 [CH3 CONH-CiTPrOIC, 7-(acetylamino)-4-chloro-3-(3-isothiureidopropoxy)isocoumarin] | kinact/KI [4]: 31 M⁻¹ s⁻¹; kinact/KI ([5]; pH 7.5, 25° C, [I] 0.9-43 μM): 5200 M⁻¹ s⁻¹; percentage of inhibition [6]: 60%; kinact/KI [9]: 200 M⁻¹ s⁻¹; t1/2 for spontaneous hydrolysis [12]: 1.13 h |
| 220 | 180 |  | 68300 |  | N=C(N)SCCCOc1oc(=O)c2cc(NC(=O)[C@H](N)Cc3ccccc3)ccc2c1Cl [D-Phe--NH-CiTPrOIC, 7-(D-phenylalanylamino)-4-chloro-3-(3-isothiureidopropoxy)isocoumarin] |  |
| 470 | 400 | 96000 |  | 11000 | N=C(N)SCCCOc1oc(=O)c2cc(NC(=O)[C@@H](N)Cc3ccccc3)ccc2c1Cl [L-Phe--NH-CiTPrOIC, 7-(L-phenylalanylamino)-4-chloro-3-(3-isothiureidopropoxy)isocoumarin] | percentage of inhibition [6]: 54% |
| 5800 | 17500 |  |  |  | N=C(N)SCCOc1oc(=O)c2cc(NC(=O)Nc3cccc4ccccc34)ccc2c1Cl [Naphthyl-NHCONH-CiTEtOIC, 7-(1-naphthylcarbamoylamino)-4-chloro-3-(2-isothiureidoethoxy)isocoumarin] |  |
| 630 | 820 | 170000 | 87900 | 15000 | N=C(N)SCCCOc1oc(=O)c2cc(NC(=O)CCc3ccccc3)ccc2c1Cl [PhCH2 CH2 CONH-CiTPrOIC, 7-(3-phenylpropionylamino)-4-chloro-3-(3-isothiureidopropoxy)isocoumarin] | kobs/[I] [6]: 180,000 M^-1 s^-1; t1/2 for spontaneous hydrolysis [12]: 1.1 h |
| 610 | 600 | 145000 | 165000 | 9000 | N=C(N)SCCCOc1oc(=O)c2cc(NC(=O)Cc3ccccc3)ccc2c1Cl [PhCH2 CONH-CiTPrOIC, 7-(phenylacetylamino)-4-chloro-3-(3-isothiureidopropoxy)isocoumarin] | kinact/KI [4]: 64 M⁻¹ s⁻¹; kinact/KI ([5]; pH 7.5, second order rate, equal molar enzyme and inhibitor): 260000 M⁻¹ s⁻¹; kobs/[I] [6]: 140,000 M^-1 s^-1; kinact/KI [9]: 130 M⁻¹ s⁻¹; t1/2 for spontaneous hydrolysis [12]: 1.02 h |
| 21400 |  |  |  |  | N=C(N)SCCOc1oc(=O)c2cc(NC(=S)Nc3ccccc3)ccc2c1Cl [PhNHCSNH-CiTEtOIC, 7-phenylthiocarbamoylamino-4-chloro-3-(2-isothiureidoethoxy)isocoumarin] |  |
| 17500 |  |  |  |  | N=C(N)SCCOc1oc(=O)c2cc(NC(=S)Nc3cccc(C(=O)O)c3)ccc2c1Cl [m-Carboxy-PhNHCSNH-CiTEtOIC, 7-(m-carboxyphenylthiocarbamoyl)amino-4-chloro-3-(2-isothiureidoethoxy)isocoumarin] |  |
